According to US20080287435A1, “Active Ingredient Combinations Having Insecticide and Acaricide Properties” (Bayer CropScience AG, priority 2005, published 2008):

Legend:
Plutella xylostella = Plutella xylostella test (cabbage leaf dip); format: in vivo; conditions: concentration 0.16 ppm; diamond back moth caterpillars on dipped cabbage leaves
Method: To produce a suitable preparation of active compound, 1 part by weight of active compound is mixed with the stated amounts of solvent and emulsifier, and the concentrate is diluted with emulsifier-containing Water to the desired concentration.
Cabbage leaves (Brassica oleracea) are treated by being dipped into the preparation of active compound of the desired concentration and are populated with caterpillars of the diamond back moth (Plutella xylostella) while the leaves are still moist.
After the desired period of time, the kill in % is determined. 100% means that all caterpillars have been killed; 0% means that none of the caterpillars have been killed.

Myzus persicae = Myzus persicae test (cabbage leaf dip); format: in vivo; conditions: concentration 20 ppm; peach aphid on cabbage leaves (Brassica oleracea), dipped
Method: To produce a suitable preparation of active compound, one part by weight of active compound is mixed with the stated amounts of solvent and emulsifier, and the concentrate is diluted with emulsifier-containing water to the desired concentration.
Cabbage leaves (Brassica oleracea) which are heavily infested by the peach aphid (Myzus persicae) are treated by being dipped into the preparation of active compound of the desired concentration.
After the desired period of time, the kill in % is determined. 100% means that all aphids have been killed; 0% means that none of the aphids have been killed.

## CC[S+]([O-])c1c(C#N)nn(-c2c(Cl)cc(C(F)(F)F)cc2Cl)c1N (centres unmarked) [Ethiprole, ethiprole]
Plutella xylostella
  Kill in % after 6 d: 0%
Myzus persicae
  Kill in % after 6 d: 10%
